Results from patent publication US7709511B2, “Benzothiazolone derivatives” (AstraZeneca AB, priority 2005, dated 2010).
Where a name gives a salt, the structure may show the parent alone.

Legend:
Adrenergic β2 [1] = molecular target: T1, Adrenergic β2 (Homo sapiens, UniProt P07550); test: Alternative adrenergic β2 mediated cAMP production in H292 cells (AlphaScreen cAMP detection); assay type: cell-based; conditions: for EC50: cAMP, test compounds incubated 60 minutes at room temperature, 300 μM rolipram, read-out: β2 pEC50 (converted); for β2 Int Act: fraction relative to the maximum activity determined for formoterol, 60 minutes incubation
T1 construct: endogenous in cells; host or cells: H292 cells
T1 sequence (P07550 whole entry): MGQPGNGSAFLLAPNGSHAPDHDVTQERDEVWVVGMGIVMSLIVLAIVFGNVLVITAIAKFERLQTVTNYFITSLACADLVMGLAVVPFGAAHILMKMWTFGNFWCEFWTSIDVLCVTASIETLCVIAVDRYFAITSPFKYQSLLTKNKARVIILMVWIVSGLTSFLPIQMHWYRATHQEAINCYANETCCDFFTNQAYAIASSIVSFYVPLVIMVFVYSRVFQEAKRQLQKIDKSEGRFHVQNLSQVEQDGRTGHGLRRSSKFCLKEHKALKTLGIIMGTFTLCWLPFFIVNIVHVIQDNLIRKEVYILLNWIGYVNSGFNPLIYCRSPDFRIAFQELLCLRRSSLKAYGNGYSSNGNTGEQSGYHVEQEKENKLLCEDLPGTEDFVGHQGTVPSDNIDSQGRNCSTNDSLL
Procedure: Alternative Adrenergic β2 Mediated cAMP Production Cell Preparation
H292 cells were grown in 225 cm2 flasks incubator at 37° C., 5% CO2 in RPMI medium containing, 10% (v/v) FBS (foetal bovine serum) and 2 mM L-glutamine.
Adherent H292 cells were removed from tissue culture flasks by treatment with Accutase™ cell detachment solution for 15 minutes. Flasks were incubated for 15 minutes in a humidified incubator at 37° C., 5% CO2. Detached cells were re-suspended in RPMI media (containing 10% (v/v) FBS and 2 mM L-glutamine) at 0.05×10^6 cells per mL. 5000 cells in 100 μL were added to each well of a tissue-culture-treated 96-well plate and the cells incubated overnight in a humidified incubator at 37° C., 5% CO2. The culture media was removed and cells were washed twice with 100 μL assay buffer and replaced with 50 μL assay buffer (HBSS solution containing 10 mM HEPES pH7.4 and 5 mM glucose). Cells were rested at room temperature for 20 minutes after which time 25 μL of rolipram (1.2 mM made up in assay buffer containing 2.4% (v/v) dimethylsulphoxide) was added. Cells were incubated with rolipram for 10 minutes after which time test compounds were added and the cells were incubated for 60 minutes at room temperature. The final rolipram concentration in the assay was 300 μM and final vehicle concentration was 1.6% (v/v) dimethylsulphoxide. The reaction was stopped by removing supernatants, washing once with 100 μL assay buffer and replacing with 50 μL lysis buffer. The cell monolayer was frozen at −80° C. for 30 minutes (or overnight).
(§1) AlphaScreen™ cAMP Detection
The concentration of cAMP (cyclic adenosine monophosphate) in the cell lysate was determined using AlphaScreen™ methodology. The frozen cell plate was thawed for 20 minutes on a plate shaker then 10 μL of the cell lysate was transferred to a 96-well white plate. 40 μL of mixed AlphaScreen™ detection beads pre-incubated with biotinylated cAMP, was added to each well and the plate incubated at room temperature for 10 hours in the dark. The AlphaScreen™ signal was measured using an EnVision spectrophotometer (Perkin-Elmer Inc.) with the recommended manufacturer's settings. cAMP concentrations were determined by reference to a calibration curve determined in the same experiment using standard cAMP concentrations. Concentration response curves for agonists were constructed and data was fitted to a four parameter logistic equation to determine both the pEC50 and Intrinsic Activity. Intrinsic Activity was expressed as a fraction relative to the maximum activity determined for formoterol in each experiment.

Adrenergic β2 [2] = molecular target: T1, Adrenergic β2; test: Adrenergic β2 mediated cAMP production in H292 cells (AlphaScreen cAMP detection); assay type: cell-based; conditions: for EC50: cAMP, test compounds incubated 10 minutes at room temperature, 300 μM rolipram; for Intrinsic Activity: fraction relative to the maximum activity determined for formoterol, 10 minutes incubation
Procedure: Adrenergic β2 Mediated cAMP Production
H292 cells were grown in RPMI (Roswell Park Memorial Institute) medium containing, 10% (v/v) FBS (foetal bovine serum) and 2 mM L-glutamine. Cells were grown in 225 cm2 flasks containing 25 mL media in a humidified incubator at 37° C., 5% CO2. Cells were harvested from the flask and passaged at a 1 in 10 dilution once per week.
The media from flasks containing H292 cells was removed, rinsed with 10 mL PBS (phosphate buffered saline) and replaced with 10 mL Accutase™ cell detachment solution. Flasks were incubated for 15 minutes in a humidified incubator at 37° C., 5% CO2. The cell suspension was counted and the cells re-suspended in RPMI media (containing 10% (v/v) FBS and 2 mM L-glutamine) at 0.05×10^6 cells per mL. 5000 cells in 100 μL were added to each well of a tissue-culture-treated 96-well plate and the cells incubated overnight in a humidified incubator at 37° C., 5% CO2. The culture media was removed, washed twice with 100 μL assay buffer and replaced with 50 μL assay buffer. Cells were rested at room temperature for 20 minutes after which time 25 μL of rolipram (1.2 mM made up in assay buffer containing 2.4% (v/v) dimethylsulphoxide) was added. Cells were incubated with rolipram for 10 minutes after which time test compounds (made up as ×4 concentrated stocks in assay buffer containing 4% (v/v) dimethylsulphoxide) were added and the cells were incubated for 10 minutes at room temperature. Final rolipram concentration in the assay was 300 μM and final vehicle concentration was 1.6% (v/v) dimethylsulphoxide. The reaction was stopped by removing supernatants, washing once with 100 μL assay buffer and replacing with 50 μL lysis buffer. The cell monolayer was frozen at −80° C. for 30 minutes (or overnight).
as §1
The concentration of cAMP (cyclic adenosine monophosphate) in the cell lysate was determined using the AlphaScreen™ methodology. The frozen cell plate was thawed for 20 minutes on a plate shaker then 10 μL of the cell lysate was transferred to a 96-well white plate. 40 μL of mixed AlphaScreen™ detection beads (containing equal volumes of donor beads (pre-incubated with biotinylated cAMP in the dark for 30 minutes) and acceptor beads), was added to each well and the plate incubated at room temperature for 10 hours in the dark. The AlphaScreen™ signal was measured using an EnVision spectrophotometer (Perkin-Elmer Inc.) with the recommended manufacturer's settings. cAMP concentrations were determined by reference to a calibration curve determined in the same experiment using standard cAMP concentrations (made up in lysis buffer in a 96-well tissue-culture-treated plate and frozen/thawed alongside the test samples) and detected using the same protocol. Concentration response curves for agonists were constructed to determine both the pEC50 and Intrinsic Activity. Intrinsic Activity was expressed as a fraction relative to the maximum activity determined for formoterol in each experiment.

CCN(CC)CCN(CCNCCc1ccc(O)c2[nH]c(=O)sc12)C(=O)CCOCCc1cccc(C(F)(F)F)c1 [Example 25, N-(2-Diethylaminoethyl)-N-{2-[2-(4-hydroxy-2-oxo-2,3-dihydro-1,3-benzothiazol-7-yl)ethylamino]ethyl}-3-[2-(3-trifluoromethylphenyl)ethoxy]propanamide dihydrobromide]
EC50 (Adrenergic β2 [1]): 63.1 nM
β2 Int Act (Adrenergic β2 [1]): 0.8

CC(C)(C)OC(=O)N1CCC(CN(CCNCCc2ccc(O)c3[nH]c(=O)sc23)C(=O)CCOCCc2ccccc2)CC1 [Example 1, tert-Butyl 4-({(2-{[2-(4-hydroxy-2-oxo-2,3-dihydro-1,3-benzothiazol-7-yl)ethyl]amino}ethyl)[3-(2-phenylethoxy)propanoyl]amino}methyl)piperidine-1-carboxylate]
EC50 (Adrenergic β2 [2]): 63.1 nM
Intrinsic Activity (Adrenergic β2 [2]): 0.7

O=c1[nH]c2c(O)ccc(CCNCCN(CCCOCCc3ccccc3)CCc3ccccc3)c2s1 [Example 13, 4-Hydroxy-7-[2-({2-[[3-(2-phenylethoxy)propyl](2-phenylethyl)amino]ethyl}amino)-ethyl]-1,3-benzothiazol-2(3H)-one]
EC50 (Adrenergic β2 [1]): 63.1 nM
β2 Int Act (Adrenergic β2 [1]): 0.5

O=C(CCOCCc1ccc(Br)cc1)N(CCNCCc1ccc(O)c2[nH]c(=O)sc12)CCc1ccccc1 [Example 10, 3-[2-(4-Bromophenyl)ethoxy]-N-[2-[2-(4-hydroxy-2-oxo-3H-benzothiazol-7-yl)ethylamino]ethyl]-N-phenethyl-propanamide]
EC50 (Adrenergic β2 [1]): 7.94 nM
β2 Int Act (Adrenergic β2 [1]): 0.7
EC50 (Adrenergic β2 [2]): 5.01 nM
Intrinsic Activity (Adrenergic β2 [2]): 0.6

CCN(CC)CCN(CCNCCc1ccc(O)c2[nH]c(=O)sc12)C(=O)CCOCCc1cc(OC)ccc1Br [Example 21, 3-[2-(2-Bromo-5-methoxyphenyl)ethoxy]-N-[2-(diethylamino)ethyl]-N-(2-{[2-(4-hydroxy-2-oxo-2,3-dihydro-1,3-benzothiazol-7-yl)ethyl]amino}ethyl)propanamide dihydrobromide]
EC50 (Adrenergic β2 [1]): 79.4 nM
β2 Int Act (Adrenergic β2 [1]): 0.6

O=C(CCOCCc1ccccc1)N(CCNCCc1ccc(O)c2[nH]c(=O)sc12)Cc1cccnc1 [Example 5, N-[2-[2-(4-Hydroxy-2-oxo-3H-benzothiazol-7-yl)ethylamino]ethyl]-3-phenethyloxy-N-(3-pyridylmethyl)propanamide]
EC50 (Adrenergic β2 [2]): 12.6 nM
Intrinsic Activity (Adrenergic β2 [2]): 0.8

CCN(CC)CCN(CCNCCc1ccc(O)c2[nH]c(=O)sc12)C(=O)CCOCCc1ccc(O)cc1 [Example 19, N-[2-(Diethylamino)ethyl]-N-(2-{[2-(4-hydroxy-2-oxo-2,3-dihydro-1,3-benzothiazol-7-yl)ethyl]amino}ethyl)-3-[2-(4-hydroxyphenyl)ethoxy]propanamide ditrifluoroacetate]
EC50 (Adrenergic β2 [1]): 12.6 nM
β2 Int Act (Adrenergic β2 [1]): 0.8

CCN(CC)CCN(CCNCCc1ccc(O)c2[nH]c(=O)sc12)C(=O)CCOCCc1ccccc1 [Example 12, N-[2-(Diethylamino)ethyl]-N-(2-{[2-(4-hydroxy-2-oxo-2,3-dihydro-1,3-benzothiazol-7-yl)ethyl]amino}ethyl)-3-(2-phenylethoxy)propanamide]
EC50 (Adrenergic β2 [1]): 7.94 nM
β2 Int Act (Adrenergic β2 [1]): 0.8
EC50 (Adrenergic β2 [2]): 15.8 nM
Intrinsic Activity (Adrenergic β2 [2]): 0.8

CN(C)CCN(CCNCCc1ccc(O)c2[nH]c(=O)sc12)C(=O)CCOCCc1ccccc1 [Example 14, N-[2-(Dimethylamino)ethyl]-N-(2-{[2-(4-hydroxy-2-oxo-2,3-dihydro-1,3-benzothiazol-7-yl)ethyl]amino}ethyl)-3-(2-phenylethoxy)propanamide]
EC50 (Adrenergic β2 [1]): 7.94 nM
β2 Int Act (Adrenergic β2 [1]): 1

O=C(CCOCCc1ccccc1)N(CCCNCCc1ccc(O)c2[nH]c(=O)sc12)CCc1ccccc1 [Example 8, N-(3-{[2-(4-Hydroxy-2-oxo-2,3-dihydro-1,3-benzothiazol-7-yl)ethyl]amino}propyl)-3-(2-phenylethoxy)-N-(2-phenylethyl)propanamide]
EC50 (Adrenergic β2 [2]): 1.26 nM
Intrinsic Activity (Adrenergic β2 [2]): 0.7

CCN(CC)CCN(CCNCCc1ccc(O)c2[nH]c(=O)sc12)C(=O)CCOCCc1c(Cl)cccc1Cl [Example 24, 3-[2-(2,6-Dichlorophenyl)ethoxy]-N-(2-diethylaminoethyl)-N-{2-[2-(4-hydroxy-2-oxo-2,3-dihydro-1,3-benzothiazol-7-yl)ethylamino]ethyl}propanamide dihydrobromide]
EC50 (Adrenergic β2 [1]): 100 nM
β2 Int Act (Adrenergic β2 [1]): 0.9
